Measurements reported in patent EP1222921B1, “Pharmaceutical compositions of tizoxanide and/or nitazoxanide” (Romark Laboratories, L.C., priority 1997, dated 1998).
Values after ≈ are worked out from the molar mass of the structure shown.

Columns and labels:
mycobacteria = assay: MTS colorimetric assay of mycobacteria growing in a liquid broth; format: cell-based
Method: Fig. 7 is a chart based upon the assay for nitazoxanide effectiveness against mycobacteria growing in a liquid broth. We used the MTS colorimetric assay which permits us to determine growth in 4 hours rather than 3 weeks as with the agar counting method.

Cryptosporidium parvum [1] = assay: Experimentally infected suckling mice, oocyst shedding; format: in vivo
Method: The effect of nitazoxanide was tested against Cryptosporidium parvum in experimentally infected mice. Nitazoxanide was supplied by Romark Laboratories, L.C. in Tampa, Florida. The total human dose (1 g/day for 7 days i.e. 7 g) was modified for use for mice according to Paget and Barnes. The human dose was multiplied by 0.0026 for mice (weighing approximately 20 grams) to obtain he total amount of the drug needed for each host morning and evening for 7 consecutive days. […] The doses were administered by mouth using a plastic syringe equipped with around tip needle. Twenty (20) 2-day old suckling mice were infected by oral administration of 100,000 oocysts of Crytospordium parvum obtained from infected calves. Before being administered to mice, the oocysts were concentrated using a sugar solution according to the technique described by […]. Rectal swabs from each mouse were obtained and examined daily using the modified […] staining technique described by Graczyk et al. Oocysts shedding appeared in feces 2 days after the oral infection of the animals. On the third day following infection of the animals, 10 mice received 1.3 mg of nitazoxanide, morning and evening, for 7 consecutive days while the 10 remaining mice were kept as untreated controls. Rectal swabs were obtained daily for each of the 7 days of treatment and for each of the 7 days following the end of treatment. The oocysts were suspended in oil and counted per 100 fields under a microscope.

Cryptosporidium parvum [2] = format: in vivo
Method: An open-label study of nitazoxanide for AIDS-related cryptosporidial diarrhea documented decreased bowel movements among persons taking 500, 1000, 1500, or 2000 mg of the drug daily. […] Almost all participants had failed therapy with azithromycin or paromomycin.
By the end of the study, 8 of 11 had completely eradicated the parasite and the other three had substantial reductions in oocyst levels. There was a trend toward better response with doses of 1000 mg daily or higher and with longer therapy. Two trial participants had urticarial skin rashes; more than 90 percent adhered to the study regimen for more than four weeks.

Solubility in DMSO = format: physicochemical; conditions: in 1 ml DMSO
Method: Nitazoxanide (NTZ), the compound of formula (II), is the generic name for 2-(acetolyloxy)-N-(5-nitro 2-thiazoly) benzamide, a compound first synthesized by Rossignol and Cavier in 1975. 2 mg of nitazoxanide can be dissolved in 1 ml DMSO. Nitazoxanide is easily absorbed orally.

C. parvum oocysts = assay: Intact C. parvum oocyst assay (Example II), immunofluorescence; format: cell-based, Cryptosporidium parvum
Method: Nitazoxanide was dissolved in sterile dimethylsulfoxide (DMSO) and tested against intact C. parvum oocysts infected cell monolayers at concentrations of 100 µg/ml, 10 µg/ml/l µg/ml and 0.1 µg/ml. A second trail was performed which tested nitazoxanide at the additional concentrations of 20, 2, 0.2 and 0.02 µg/ml. These concentrations were achieved by serial dilutions with complete DMEM medium to yield a final DMSO concentration of 0.5%. The medium control also contacted 0.5% DMSO.
The experiment used a cell culture of MDBKF5D2 Cells grown in 7 mm chambers, and as Cryptosporidium parvum: GCH1 oocysts, 5 X 10^4 per well, and was conducted to compare paromomycin (positive control) against nitazoxanide (experimental drug). Materials included Immune Anti-Cryptosporidium parvum Sporozoite Rabbit Serum (0.1%) and Fluorescein-Conjugated Goat Anti-Rabbit Antibody (1%).
5 x 104 C. parvum oocysts per well were incubated in nitazoxanide (100, 20, 10, 2, 1, 0.2, 0.1 and 0.02 µg/ml) at 37°C (8% CO2) on confluent MDBKF5D2 cell monolayers. The level of infection in each well was determined and analyzed by an immunofluorescence assay at 24 to 48 hours. Percent Inhibition was calculated by subtracting the mean parasite count/10 field in the drug test wells from the mean parasite count/10 fields in the medium control (no drug), dividing by the medium control count, and then multiplying by 100. (Medium control count - Drug test count)/(Medium control count)x 100 [formula]

[3] = system: RH strain of Toxoplasma gondii; assay: Toxoplasma gondii growth in MRC5 fibroblast cultures, ELISA; format: cell-based
MDBKF5D2 cell monolayers = assay: Toxicity testing assay (Example III), MTS/PMS; format: cell-based; conditions: cattle, 48 h
Method: 200µl of medium containing nitazoxanide solution at the pre-mentioned concentrations and the proper controls were introduced into two wells of a 96 well plate containing confluent MDBKFD2 cell monolayers and two wells without monolayers. […] The plate was returned to the incubator in the dark to develop for 2 hours. At 2 hours, 100 µl of each supernatant was transferred to a new microtiter plate and read in the ELISA reader at 490 nm. Results were recorded and analyzed. […] (OD medium - OD drug x 100)/(OD medium) [formula] […]

[4] = system: M. intracellular ATCC 13950; assay: MIC by standard agar dilution; format: cell-based, Mycobacterium intracellular; conditions: Mycobacterium, ATCC13950, 504 h, Middlebrook 7H11 agar, 3 weeks
[5] = after 23 weeks, 500, 1000, 1500, or 2000 mg daily

## CC(=O)Oc1ccccc1C(=O)Nc1ncc([N+](=O)[O-])s1 [Nitazoxanide, 2-(acetolyloxy)-N-(5-nitro 2-thiazoly) benzamide]
mycobacteria; 3 µg/ml dose added at the 72 hr after culture was initiated
  effect on continued growth: stops growth for the next 24 hrs and then there is a slow growth afterwards for the next 2 days
mycobacteria; 50 µg/ml dose added at the 72 hr after culture was initiated
  effect on continued growth: completely bacteriostatic throughout the 144 hours of the culture
Cryptosporidium parvum [1]; Day 7, 2.6 mg/day by mouth for 7 consecutive days, suckling mice
  oocyst shedding at the end of treatment: complete reduction of the oocyst shedding
Cryptosporidium parvum [1]; days 3 and 7 after the end of treatment
  fecal examinations after the end of treatment: negative examinations
Cryptosporidium parvum [1]; end of the third day of treatment, 2.6 mg/day by mouth for 7 consecutive days, suckling mice
  treated mice with decreased oocysts shedding: 6 of the 10
Cryptosporidium parvum [2]; [5]
  complete clinical response (one to three predominantly formed bowel movements daily): 9 of 13
  partial clinical response: 4 of 13
Cryptosporidium parvum [2]; by the end of the study
  completely eradicated the parasite: 8 of 11
Cryptosporidium parvum [2]; by the end of the study, remaining of 11
  substantial reductions in oocyst levels: three
Solubility in DMSO
  amount that can be dissolved: 2 mg
C. parvum oocysts; Cryptosporidium parvum, Trial 1: 24 hrs, 0.1µg/ml, read-out: Percent Inhibition
  inhibition at 0.1 µg/mL: 51.8%
C. parvum oocysts; Cryptosporidium parvum, Trial 1: 24 hrs, 1µg/ml, read-out: Percent Inhibition
  inhibition at 1 µg/mL: 77.2%
C. parvum oocysts; Cryptosporidium parvum, Trial 1: 24 hrs, 10µg/ml, read-out: Percent Inhibition
  inhibition at 10 µg/mL: 94.4%
C. parvum oocysts; Cryptosporidium parvum, Trial 2: 48 hrs, 0.02µg/ml, read-out: Percent Inhibition
  inhibition at 0.02 µg/mL: 53.3%
C. parvum oocysts; Cryptosporidium parvum, Trial 2: 48 hrs, 0.2µg/ml, read-out: Percent Inhibition
  inhibition at 0.2 µg/mL: 54.3%
C. parvum oocysts; Cryptosporidium parvum, Trial 2: 48 hrs, 2µg/ml, read-out: Percent Inhibition
  inhibition at 2 µg/mL: 94.9%
C. parvum oocysts; Cryptosporidium parvum, Trial 2: 48 hrs, 20µg/ml, read-out: Percent Inhibition
  inhibition at 20 µg/mL: 96.9%
C. parvum oocysts; Trial 1: 24 hrs, 0.1µg/ml
  Mean (+ SD) Parasite Count/10 Fields: 474.5(±29.5)
C. parvum oocysts; Trial 1: 24 hrs, 1µg/ml
  Mean (+ SD) Parasite Count/10 Fields: 224.5(±28.5)
C. parvum oocysts; Trial 1: 24 hrs, 10µg/ml
  Mean (+ SD) Parasite Count/10 Fields: 55.5(±13.5)
C. parvum oocysts; Trial 2: 48 hrs, 0.02µg/ml
  Mean (+ SD) Parasite Count/10 Fields: 1041(+191.46)
C. parvum oocysts; Trial 2: 48 hrs, 0.2µg/ml
  Mean (+ SD) Parasite Count/10 Fields: 1020(+158.48)
C. parvum oocysts; Trial 2: 48 hrs, 2µg/ml
  Mean (+ SD) Parasite Count/10 Fields: 113.75(+21.36)
C. parvum oocysts; Trial 2: 48 hrs, 20µg/ml
  Mean (+ SD) Parasite Count/10 Fields: 68.75(+13.77)
[3]; 72 hours
  concentration with significant effect (inhibition): ≥ 0.6 mg/L
  concentrations with complete inhibition of Toxoplasma growth: ≥ 2.5 mg/L
[3]; Toxoplasma gondii, MRC5, 72 hours, estimated from regression analysis, read-out: 50% inhibitory concentration
  IC50: 1.2 µg/mL (≈ 3.91 µM)
[3]; alteration of the parasitophorous vacuole, no marked alteration of the parasite itself
  concentrations at which a marked inhibition of Toxoplasma growth could be observed: approximately 1.2 mg/L
[3]; concentration of 1.25 mg/L
  microscopic examination of the monolayer: induced cytopathic effect on the parasitized cells, with enlargement of the parasitophorous vacuole and reduction of the number of the intra-celular parasites
MDBKF5D2 cell monolayers; 0.01 µg/ml
  %Tox - Percent toxicity to cells by the drug: 10.12%
  Tox/OD: 1.617
MDBKF5D2 cell monolayers; 0.1 µg/ml
  %Tox - Percent toxicity to cells by the drug: ≤0%
  Tox/OD: 1.878
MDBKF5D2 cell monolayers; 1 µg/ml
  %Tox - Percent toxicity to cells by the drug: 10.09%
  Tox/OD: 1.618
MDBKF5D2 cell monolayers; 10 µg/ml
  %Tox - Percent toxicity to cells by the drug: 77.07%
  Tox/OD: .413
[4]
  MIC: 2 µg/mL (≈ 6.51 µM)
